From ChEMBL document CHEMBL1201862, “PubChem BioAssay data set” (2004) come the findings set out here.

Calls of active or inactive are those of the source. Where only a bound is given, the exact number is not on record here.

What all share (assay type): functional
In experiment [1] the target is Ribosomal protein S6 kinase alpha-3 (Homo sapiens, UniProt P51812).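 Further: measured within a kinome-wide profiling panel.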
Experiment [2] addresses Tyrosine-protein kinase JAK2 (Homo sapiens, UniProt O60674).
Experiment [3] concerns the target T1, cGMP-dependent protein kinase 1 (Homo sapiens, UniProt Q13976).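 Further: value from a kinome panel screen with PRKG1 as the panel member.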
T1 sequence (Q13976 whole entry): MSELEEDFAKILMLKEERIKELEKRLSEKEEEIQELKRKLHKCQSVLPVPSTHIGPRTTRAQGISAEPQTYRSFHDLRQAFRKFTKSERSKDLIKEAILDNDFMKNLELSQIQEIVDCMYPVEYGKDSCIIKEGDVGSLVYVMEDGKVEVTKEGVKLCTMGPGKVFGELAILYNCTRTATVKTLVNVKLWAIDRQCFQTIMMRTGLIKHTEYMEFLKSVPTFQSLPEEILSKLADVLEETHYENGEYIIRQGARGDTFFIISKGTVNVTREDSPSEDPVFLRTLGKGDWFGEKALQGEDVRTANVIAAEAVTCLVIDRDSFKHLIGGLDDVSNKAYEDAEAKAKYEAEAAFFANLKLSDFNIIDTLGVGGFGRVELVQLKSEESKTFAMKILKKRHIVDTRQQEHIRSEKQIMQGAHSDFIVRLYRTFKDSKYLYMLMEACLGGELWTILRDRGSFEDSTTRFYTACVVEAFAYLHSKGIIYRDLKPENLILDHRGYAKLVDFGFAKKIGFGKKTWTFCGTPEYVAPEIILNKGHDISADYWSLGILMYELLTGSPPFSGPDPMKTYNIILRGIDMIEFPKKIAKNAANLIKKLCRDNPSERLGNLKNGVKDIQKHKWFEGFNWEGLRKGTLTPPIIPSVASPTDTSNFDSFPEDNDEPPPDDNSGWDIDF

Experiment [4] deals with Proto-oncogene tyrosine-protein kinase receptor Ret (Homo sapiens, UniProt P07949).
In experiment [5] the target is Testis-specific serine/threonine-protein kinase 2 (Homo sapiens, UniProt Q96PF2).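 Further: part of the Navigating the Kinome panel, target entry STK22B.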
For experiment [6], the target named is Mitogen-activated protein kinase 9 (Homo sapiens, UniProt P45984).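 Further: value from a kinome panel profiling assay, MAPK9 panel entry.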
The target in experiment [7] is Proto-oncogene tyrosine-protein kinase ROS (Homo sapiens, UniProt P08922).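 Further: ROS1 tested as one member of a kinome-wide kinase panel.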
Experiment [8] concerns the target Serine/threonine-protein kinase Chk1 (Homo sapiens, UniProt O14757).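 Further: measured as one member of a kinome-wide kinase profiling panel.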
The target in experiment [9] is Tyrosine-protein kinase ABL1 (Homo sapiens, UniProt P00519).
The target of experiment [10] is Mitogen-activated protein kinase 1 (Homo sapiens, UniProt P28482).
In experiment [11] the target is Maternal embryonic leucine zipper kinase (Homo sapiens, UniProt Q14680).
Experiment [12] deals with T2, Interleukin-1 receptor-associated kinase 4 (Homo sapiens, UniProt Q9NWZ3).
T2 sequence (Q9NWZ3 whole entry): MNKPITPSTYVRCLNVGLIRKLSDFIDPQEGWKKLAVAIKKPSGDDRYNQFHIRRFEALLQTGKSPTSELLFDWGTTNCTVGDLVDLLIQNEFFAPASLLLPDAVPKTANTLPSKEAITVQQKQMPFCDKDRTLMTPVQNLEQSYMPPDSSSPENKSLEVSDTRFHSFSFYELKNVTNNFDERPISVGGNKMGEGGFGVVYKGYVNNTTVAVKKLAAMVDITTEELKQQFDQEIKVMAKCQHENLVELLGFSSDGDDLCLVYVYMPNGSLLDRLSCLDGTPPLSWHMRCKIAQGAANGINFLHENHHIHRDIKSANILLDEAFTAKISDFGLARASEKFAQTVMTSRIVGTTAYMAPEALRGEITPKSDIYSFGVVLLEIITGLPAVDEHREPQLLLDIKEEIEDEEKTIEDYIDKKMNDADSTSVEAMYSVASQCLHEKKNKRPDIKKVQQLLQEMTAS

For experiment [13], the target named is T3, Homeodomain-interacting protein kinase 4 (Homo sapiens, UniProt Q8NE63).
T3 sequence (Q8NE63 whole entry): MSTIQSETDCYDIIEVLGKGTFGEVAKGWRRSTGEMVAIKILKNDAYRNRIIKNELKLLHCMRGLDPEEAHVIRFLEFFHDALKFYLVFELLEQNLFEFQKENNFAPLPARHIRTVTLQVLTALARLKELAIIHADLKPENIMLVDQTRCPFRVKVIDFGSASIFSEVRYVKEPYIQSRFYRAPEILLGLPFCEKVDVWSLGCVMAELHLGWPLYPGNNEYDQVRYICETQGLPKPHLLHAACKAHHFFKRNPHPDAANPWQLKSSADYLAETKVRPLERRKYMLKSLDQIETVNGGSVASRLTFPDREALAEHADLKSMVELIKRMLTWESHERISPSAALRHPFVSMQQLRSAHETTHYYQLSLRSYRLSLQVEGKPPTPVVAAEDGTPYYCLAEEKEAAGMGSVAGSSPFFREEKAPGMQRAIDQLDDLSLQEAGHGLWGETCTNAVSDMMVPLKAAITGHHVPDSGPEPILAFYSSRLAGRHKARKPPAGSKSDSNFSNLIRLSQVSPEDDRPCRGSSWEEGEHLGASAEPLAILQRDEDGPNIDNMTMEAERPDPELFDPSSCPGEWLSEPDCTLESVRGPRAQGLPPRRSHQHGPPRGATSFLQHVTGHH

Experiment [14] addresses Receptor tyrosine-protein kinase erbB-4 (Homo sapiens, UniProt Q15303).
The target in experiment [15] is Lymphokine-activated killer T-cell-originated protein kinase (Homo sapiens, UniProt Q96KB5).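 Further: value comes from a kinase panel screen in which TOPK was one of the panel members.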

Mitogen-activated protein kinase 1, sequence (P28482 whole entry): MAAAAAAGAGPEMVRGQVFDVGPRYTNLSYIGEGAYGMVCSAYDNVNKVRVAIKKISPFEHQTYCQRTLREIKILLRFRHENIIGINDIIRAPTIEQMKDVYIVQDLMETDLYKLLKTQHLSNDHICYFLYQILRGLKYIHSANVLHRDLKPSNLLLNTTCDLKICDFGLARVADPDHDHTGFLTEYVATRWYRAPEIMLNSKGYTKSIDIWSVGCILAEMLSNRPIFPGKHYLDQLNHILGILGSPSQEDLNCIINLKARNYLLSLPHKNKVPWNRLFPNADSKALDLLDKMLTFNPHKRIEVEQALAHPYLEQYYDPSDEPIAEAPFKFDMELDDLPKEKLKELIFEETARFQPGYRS
Mitogen-activated protein kinase 9, sequence (P45984 whole entry): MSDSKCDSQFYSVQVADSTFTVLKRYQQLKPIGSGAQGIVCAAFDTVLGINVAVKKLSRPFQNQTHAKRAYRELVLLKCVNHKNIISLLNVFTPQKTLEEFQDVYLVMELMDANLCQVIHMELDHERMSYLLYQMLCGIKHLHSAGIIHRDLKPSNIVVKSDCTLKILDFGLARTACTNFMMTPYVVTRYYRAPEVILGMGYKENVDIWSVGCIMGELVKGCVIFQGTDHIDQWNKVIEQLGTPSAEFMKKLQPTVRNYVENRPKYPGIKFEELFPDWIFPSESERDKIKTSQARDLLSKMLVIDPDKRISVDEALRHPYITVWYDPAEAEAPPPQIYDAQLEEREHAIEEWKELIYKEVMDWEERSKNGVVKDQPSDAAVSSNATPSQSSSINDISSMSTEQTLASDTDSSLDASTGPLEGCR
Tyrosine-protein kinase JAK2, sequence (O60674 whole entry): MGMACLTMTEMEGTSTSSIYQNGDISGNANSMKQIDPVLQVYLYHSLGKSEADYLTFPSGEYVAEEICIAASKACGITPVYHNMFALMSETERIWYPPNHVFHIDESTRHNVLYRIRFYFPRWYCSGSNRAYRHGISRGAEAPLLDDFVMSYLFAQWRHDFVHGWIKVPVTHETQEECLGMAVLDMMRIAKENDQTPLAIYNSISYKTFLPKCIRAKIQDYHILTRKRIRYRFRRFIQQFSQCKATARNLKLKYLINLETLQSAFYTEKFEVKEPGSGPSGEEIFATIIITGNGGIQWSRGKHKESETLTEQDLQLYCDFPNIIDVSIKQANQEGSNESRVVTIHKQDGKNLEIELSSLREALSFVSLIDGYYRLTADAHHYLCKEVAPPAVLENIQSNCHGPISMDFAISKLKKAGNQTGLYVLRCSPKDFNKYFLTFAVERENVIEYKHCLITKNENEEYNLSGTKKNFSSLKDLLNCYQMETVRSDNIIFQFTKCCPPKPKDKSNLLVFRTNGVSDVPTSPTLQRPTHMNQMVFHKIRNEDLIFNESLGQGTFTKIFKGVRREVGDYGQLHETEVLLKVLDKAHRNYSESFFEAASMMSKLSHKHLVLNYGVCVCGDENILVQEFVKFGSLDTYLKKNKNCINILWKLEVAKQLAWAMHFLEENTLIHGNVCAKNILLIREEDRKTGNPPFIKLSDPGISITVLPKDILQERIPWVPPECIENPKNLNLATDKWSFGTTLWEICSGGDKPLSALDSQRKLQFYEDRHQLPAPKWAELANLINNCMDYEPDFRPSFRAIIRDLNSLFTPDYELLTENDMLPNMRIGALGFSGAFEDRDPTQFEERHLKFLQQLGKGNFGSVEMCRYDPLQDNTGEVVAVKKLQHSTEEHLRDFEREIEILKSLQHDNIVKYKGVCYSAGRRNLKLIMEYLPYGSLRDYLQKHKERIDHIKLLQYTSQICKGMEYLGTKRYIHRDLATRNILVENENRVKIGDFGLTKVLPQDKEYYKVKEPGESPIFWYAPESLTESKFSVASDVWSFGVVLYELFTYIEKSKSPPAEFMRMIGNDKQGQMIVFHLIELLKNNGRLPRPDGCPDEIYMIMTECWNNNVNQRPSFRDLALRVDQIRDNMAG
Ribosomal protein S6 kinase alpha-3, sequence (P51812 whole entry): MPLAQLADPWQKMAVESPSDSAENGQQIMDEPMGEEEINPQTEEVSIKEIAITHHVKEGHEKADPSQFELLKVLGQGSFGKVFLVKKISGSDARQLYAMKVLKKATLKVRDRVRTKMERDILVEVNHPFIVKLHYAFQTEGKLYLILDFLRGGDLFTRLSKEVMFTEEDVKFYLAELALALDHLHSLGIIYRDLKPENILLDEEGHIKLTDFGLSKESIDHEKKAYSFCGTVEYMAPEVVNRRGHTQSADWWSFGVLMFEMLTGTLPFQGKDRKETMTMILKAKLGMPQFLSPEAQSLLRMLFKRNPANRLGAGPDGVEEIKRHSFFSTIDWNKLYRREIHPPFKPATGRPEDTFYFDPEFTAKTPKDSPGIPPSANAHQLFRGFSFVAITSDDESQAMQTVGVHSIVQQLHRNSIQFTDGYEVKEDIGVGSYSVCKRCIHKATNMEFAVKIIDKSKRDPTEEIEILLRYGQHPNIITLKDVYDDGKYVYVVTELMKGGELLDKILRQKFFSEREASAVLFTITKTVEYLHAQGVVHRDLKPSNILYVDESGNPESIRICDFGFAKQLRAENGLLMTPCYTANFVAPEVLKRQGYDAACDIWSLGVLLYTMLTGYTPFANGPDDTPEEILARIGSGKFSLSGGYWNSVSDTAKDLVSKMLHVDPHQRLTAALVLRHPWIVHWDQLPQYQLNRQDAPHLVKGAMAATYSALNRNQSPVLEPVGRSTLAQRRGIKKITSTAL
Proto-oncogene tyrosine-protein kinase ROS, sequence (P08922 whole entry): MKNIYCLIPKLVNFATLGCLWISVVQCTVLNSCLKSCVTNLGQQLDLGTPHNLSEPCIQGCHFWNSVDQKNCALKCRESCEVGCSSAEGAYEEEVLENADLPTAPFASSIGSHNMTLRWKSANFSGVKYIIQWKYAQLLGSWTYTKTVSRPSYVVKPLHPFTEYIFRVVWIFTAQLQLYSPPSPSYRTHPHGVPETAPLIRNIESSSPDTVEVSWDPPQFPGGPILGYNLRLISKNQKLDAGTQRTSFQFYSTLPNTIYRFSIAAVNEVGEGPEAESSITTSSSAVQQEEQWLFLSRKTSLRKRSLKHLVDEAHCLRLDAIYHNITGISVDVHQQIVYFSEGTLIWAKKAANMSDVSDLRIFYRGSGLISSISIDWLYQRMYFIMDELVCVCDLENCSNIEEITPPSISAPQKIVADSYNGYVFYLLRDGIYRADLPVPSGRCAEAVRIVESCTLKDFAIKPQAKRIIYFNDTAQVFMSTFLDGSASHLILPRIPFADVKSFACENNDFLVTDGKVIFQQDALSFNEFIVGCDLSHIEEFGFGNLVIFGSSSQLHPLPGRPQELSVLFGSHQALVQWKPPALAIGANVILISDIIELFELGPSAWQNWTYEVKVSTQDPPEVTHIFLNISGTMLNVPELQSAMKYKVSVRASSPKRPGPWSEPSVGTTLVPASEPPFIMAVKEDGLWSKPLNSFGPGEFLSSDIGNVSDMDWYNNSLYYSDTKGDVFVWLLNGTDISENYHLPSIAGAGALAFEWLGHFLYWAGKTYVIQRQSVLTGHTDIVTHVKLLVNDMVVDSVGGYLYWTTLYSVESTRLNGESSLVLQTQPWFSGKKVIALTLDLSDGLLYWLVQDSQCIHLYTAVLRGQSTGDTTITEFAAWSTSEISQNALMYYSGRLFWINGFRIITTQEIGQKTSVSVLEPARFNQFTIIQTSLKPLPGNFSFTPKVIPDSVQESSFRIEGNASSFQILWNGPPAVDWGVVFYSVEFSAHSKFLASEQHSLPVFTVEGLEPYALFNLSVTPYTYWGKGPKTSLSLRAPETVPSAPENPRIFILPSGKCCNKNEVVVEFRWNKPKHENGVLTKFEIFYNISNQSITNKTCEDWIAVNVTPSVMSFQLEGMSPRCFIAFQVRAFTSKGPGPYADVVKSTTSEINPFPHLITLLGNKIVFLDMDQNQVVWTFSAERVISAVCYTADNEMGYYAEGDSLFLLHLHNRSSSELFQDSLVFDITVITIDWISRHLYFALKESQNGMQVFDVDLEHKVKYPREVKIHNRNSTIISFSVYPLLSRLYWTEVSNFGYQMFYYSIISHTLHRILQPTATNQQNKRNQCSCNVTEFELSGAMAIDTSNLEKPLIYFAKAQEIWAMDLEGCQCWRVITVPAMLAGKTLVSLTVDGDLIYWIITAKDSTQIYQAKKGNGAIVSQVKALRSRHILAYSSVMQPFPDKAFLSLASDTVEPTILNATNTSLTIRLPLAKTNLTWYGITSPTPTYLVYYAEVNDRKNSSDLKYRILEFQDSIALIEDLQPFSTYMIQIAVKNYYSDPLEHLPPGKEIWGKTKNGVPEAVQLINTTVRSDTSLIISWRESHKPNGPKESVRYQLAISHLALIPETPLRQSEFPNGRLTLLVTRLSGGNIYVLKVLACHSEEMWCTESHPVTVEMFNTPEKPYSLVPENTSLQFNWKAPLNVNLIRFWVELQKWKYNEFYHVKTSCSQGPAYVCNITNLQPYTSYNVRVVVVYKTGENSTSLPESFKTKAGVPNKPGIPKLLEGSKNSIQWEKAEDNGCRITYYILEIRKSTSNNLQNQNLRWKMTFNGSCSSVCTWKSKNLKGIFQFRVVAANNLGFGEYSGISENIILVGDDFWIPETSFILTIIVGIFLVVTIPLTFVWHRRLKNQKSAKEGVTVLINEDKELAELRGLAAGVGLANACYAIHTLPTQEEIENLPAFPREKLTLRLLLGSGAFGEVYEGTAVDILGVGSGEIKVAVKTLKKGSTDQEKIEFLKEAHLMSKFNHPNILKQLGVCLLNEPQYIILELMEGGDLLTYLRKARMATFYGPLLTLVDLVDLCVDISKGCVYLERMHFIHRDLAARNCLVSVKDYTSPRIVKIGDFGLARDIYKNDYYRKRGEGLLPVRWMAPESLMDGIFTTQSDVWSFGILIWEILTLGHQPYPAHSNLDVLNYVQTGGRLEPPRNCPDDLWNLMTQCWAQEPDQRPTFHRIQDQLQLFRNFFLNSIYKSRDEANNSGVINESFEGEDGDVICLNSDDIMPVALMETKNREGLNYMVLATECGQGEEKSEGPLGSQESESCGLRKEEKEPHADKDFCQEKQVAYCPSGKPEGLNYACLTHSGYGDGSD

With `Cc1ccc(-n2nc(C(C)(C)C)cc2NC(=O)Nc2ccc(OCCN3CCOCC3)c3ccccc23)cc1` [DORAMAPIMOD], the Ki – broadly, the equilibrium dissociation constant of an inhibitor or competing ligand from its target – in [1] was > 3.98 µM (inactive).
As to `NC(COc1cncc(-c2ccc3c(c2)C(=Cc2ccco2)C(=O)N3)c1)Cc1c[nH]c2ccccc12` (configuration not stated), the Ki was 0.316 µM (active) in experiment [2]; 0.00126 µM (active) in [3]; 0.0501 µM (active) in experiment [4]; 0.794 µM (active) in experiment [5]; 0.398 µM (active) in [6]; 1 µM (active) in experiment [7]. The Ki in experiment [8] is 0.398 µM (active); in [9], > 0.631 µM (inactive); in experiment [10], 0.398 µM (active); in [11] it was 0.00501 µM (active); in [12] it was 0.251 µM (active); in experiment [13], 0.0631 µM (active). For the same molecule, the Ki in experiment [14] was > 3.98 µM (inactive); in [15], 0.501 µM (active).
In the case of `NC(=O)c1cc(-c2ccnc(N)n2)[nH]c1-c1ccc(Cl)cc1Cl`, the Ki is 0.0501 µM (active) in [1]; 0.02 µM (active) in [2]; 0.794 µM (active) in [3]; > 1.26 µM (inactive) in experiment [4]; > 1.58 µM (inactive) in experiment [5]; 0.501 µM (active) in experiment [6]. Moreover, the Ki in [7] was > 2 µM (inactive); in [8] it was > 7.94 µM (inactive); in experiment [9], > 0.631 µM (inactive); in experiment [10], 0.0316 µM (active); in [11], > 1.58 µM (inactive); in [12], 0.631 µM (active). Further, the Ki was 0.398 µM (active) in experiment [13], > 3.98 µM (inactive) in experiment [14] and 3.16 µM (active) in [15]. In addition, the pKi – broadly, the Ki on a negative log10 scale, so that one unit is a factor of ten – in [1] is reported as 7.3; in experiment [2], 7.7; in [3], 6.1; in [6] it was 6.3; in experiment [10] it was 7.5; in [12] it was 6.2. For the same molecule, in experiment [13], the pKi was 6.4.
